{"source": "patent US9702007B2", "about": "“Genetic markers predictive of response to glatiramer acetate” (TEVA PHARMACEUTICALS INDUSTRIES, LTD., priority 2013, dated 2017)", "key": {"RRMS patients [1]": {"system": "RRMS patients", "experiment": "Combined GALA and FORTE cohorts: patient responses by preliminary predictive model (11 SNPs and 2 clinical co-variates, threshold 0.71)", "type": "in vivo, human", "design": "ARR reduced (improved) by: concentration or dose not given beside the values", "experimental": "A predictive model was generated based on the 11 SNPs shown in tables 42, 43, 44a and 44b and the two Clinical co-variants shown in table 33.\nReceiver Operating Characteristic (ROC) analysis was performed using the actual value (case or control) and predicted value for each sample from the multi-marker regression model (FIG. 1). For these preliminary analyses, two risk groups were defined using the predicted values from the multi-marker regression model. The predictive threshold value was set at 0.71 (termed “model 3”) based on a variety of factors after consultation with the Teva team and Teva MS clinical experts.\nWhile 40% of patients were classified as “predicted non-responders” with an overall response rate of 34% (FIG. 5)."}, "RRMS patients [2]": {"system": "RRMS patients", "settings": "cited from earlier work"}, "RRMS patients [3]": {"system": "RRMS patients", "experiment": "FORTE phase 3 trial cohort: response to glatiramer acetate, ARR by predicted responder status", "type": "in vivo, human", "settings": "for ARR reduced (improved) by: predicted responders vs predicted non-responders", "from_the_text": "As used herein, “FORTE” is a phase 3 clinical trial entitled “Clinical Trial Comparing Treatment of Relapsing-Remitting Multiple Sclerosis (RR-MS) With Two Doses of Glatiramer Acetate (GA).” The FORTE trial has the ClinicalTrials.gov Identifier NCT00337779 and additional information, including study results can be found at clinicaltrials.gov/ct2/show/NCT00337779.\n(§1) Response definitions were received from patients from two large glatiramer acetate clinical trial cohorts (GALA, FORTE) and patients were categorized as responder, non-responder, extreme-responder, or extreme non-responder according to the criteria set forth in Table 1.\n(§2) When analysis was conducted for all genotyped patients of the Gala and FORTE cohorts, based on the predictive model (11 SNPs and 2 clinical variables), 34% of GALA, and 42% of FORTE-patients were classified as “predicted responders”.\n(§3) Analysis was conducted for all genotyped patients of the Gala and FORTE cohorts, based on the 11 SNPs in the predictive model, but without including the clinical variables, and using a threshold at ˜30% of the population classified as “predicted responders” (FIG. 9).\n(§4) When analysis was conducted for all genotyped patients of the Gala and FORTE cohorts, based on the […] and 2 clinical variables, 34% of GALA, and 42% of FORTE-patients were classified as “predicted responders”."}, "RRMS patients [4]": {"system": "RRMS patients", "experiment": "GALA phase 3 trial cohort: response to glatiramer acetate, ARR by predicted responder status", "type": "in vivo, human", "experimental": "As used herein, “GALA” is a phase 3 clinical trial entitled “A Study in Subjects With Relapsing-Remitting Multiple Sclerosis (RRMS) to Assess the Efficacy, Safety and Tolerability of Glatiramer Acetate (GA) Injection 40 mg Administered Three Times a Week Compared to Placebo (GALA).” The GALA trial has the ClinicalTrials.gov Identifier NCT01067521, and additional information about the trial can be found at clinicaltrials.gov/ct2/show/NCT01067521.\nas §1, §2, §3, §4"}, "RRMS subjects": {"system": "RRMS subjects", "settings": "cited from earlier work"}, "[5]": {"settings": "predicted responders compared to predicted non-responders"}, "[6]": {"settings": "predicted responders compared to the overall cohort"}, "[7]": {"settings": "predicted responders compared to the overall patient cohort"}, "[8]": {"settings": "predicted responders, ± standard error of the mean"}, "[9]": {"settings": "change in ARR <-1 and new T2 lesions = 0 and relapse free"}, "[10]": {"settings": "change in ARR from previous 2 years <-1"}, "[11]": {"settings": "change in ARR from previous 2 years ≧0"}, "[12]": {"settings": "change in ARR ≧0 and new T2 lesions ≧1"}, "[13]": {"settings": "predicted non-responders, 10 SNPs and 2 clinical variables"}, "[14]": {"settings": "predicted non-responders, 11 SNPs without clinical variables"}, "[15]": {"settings": "predicted non-responders, model of 11 SNPs and 2 clinical variables"}, "[16]": {"settings": "predicted responders, 10 SNPs and 2 clinical variables, ± SEM"}, "[17]": {"settings": "predicted responders, 11 SNPs without clinical variables, threshold ~30% of population, ± SEM"}, "[18]": {"settings": "predicted responders, model of 11 SNPs and 2 clinical variables, ± SEM"}}, "note": "“And” between values parts separate entries of the source, which are not always exact repeats. Identical values can stand only once. Like-named read-outs stand apart in the source and are kept apart here.", "data": [{"substance": "glatiramer acetate", "values": [{"measurement": "EDSS progression", "setting": "RRMS patients [1]; overall cohort", "result": 0.057}, {"measurement": "response rate", "setting": "RRMS patients [1]; overall cohort", "result": 68, "unit": "%"}, {"measurement": "annualized relapse rate (ARR)", "setting": "RRMS patients [1]; overall patient cohort", "result": "0.53±0.04"}, {"measurement": "number of confirmed relapses (nrelapse)", "setting": "RRMS patients [1]; overall patient cohort", "result": "0.46±0.03"}, {"measurement": "EDSS progression", "setting": "RRMS patients [1]; predicted non-responders", "result": "0.10±0.02"}, {"measurement": "annualized relapse rate (ARR)", "setting": "RRMS patients [1]; predicted non-responders", "result": "1.04±0.08"}, {"measurement": "number of T1 enhancing lesions at month 12", "setting": "RRMS patients [1]; predicted non-responders", "result": "1.70±0.38"}, {"measurement": "number of confirmed relapses (nrelapse)", "setting": "RRMS patients [1]; predicted non-responders", "result": "0.88±0.06"}, {"measurement": "response rate", "setting": "RRMS patients [1]; predicted non-responders, Gala and Forte cohorts", "result": 34, "unit": "%"}, {"measurement": "EDSS progression", "setting": "RRMS patients [1]; predicted responders", "result": "0.03±0.01"}, {"measurement": "number of T1 enhancing lesions at month 12", "setting": "RRMS patients [1]; predicted responders", "result": "0.91±0.18"}, {"measurement": "ARR reduced (improved) by", "setting": "RRMS patients [1]; [5]", "result": 80, "unit": "%"}, {"measurement": "improved response rate", "setting": "RRMS patients [1]; [5]", "result": 2.7, "unit": "fold"}, {"measurement": "number of T1 enhancing lesions at month 12 reduced (improved) by", "setting": "RRMS patients [1]; [5]", "result": 47, "unit": "%"}, {"measurement": "number of confirmed relapses reduced (improved) by", "setting": "RRMS patients [1]; [5]", "result": 78, "unit": "%"}, {"measurement": "improvement in response rate", "setting": "RRMS patients [1]; [6]", "result": 34, "unit": "%"}, {"measurement": "reduced EDSS progression", "setting": "RRMS patients [1]; [6]", "result": 49, "unit": "%"}, {"measurement": "ARR reduced (improved) by", "setting": "RRMS patients [1]; [7]", "result": 60, "unit": "%"}, {"measurement": "number of confirmed relapses reduced (improved) by", "setting": "RRMS patients [1]; [7]", "result": 58, "unit": "%"}, {"measurement": "EDSS progression delayed (improved) by", "setting": "RRMS patients [1]; predicted responders versus predicted non-responders", "result": 72, "unit": "%"}, {"measurement": "response rate", "setting": "RRMS patients [1]; predicted responders, Gala and Forte cohorts", "result": "91.1% and 91%"}, {"measurement": "annualized relapse rate (ARR)", "setting": "RRMS patients [1]; [8]", "result": "0.21±0.03"}, {"measurement": "number of confirmed relapses (nrelapse)", "setting": "RRMS patients [1]; [8]", "result": "0.19±0.03"}, {"measurement": "response rate", "setting": "RRMS patients [2]; DRB1*1501 carriers", "result": 81.8, "unit": "%"}, {"measurement": "response rate", "setting": "RRMS patients [2]; non-carriers of DRB1*1501", "result": 39.4, "unit": "%"}, {"measurement": "response rate", "setting": "RRMS patients [2]; whole study population (N=83 RRMS)", "result": 50, "unit": "%"}, {"measurement": "Extreme Responders, % of cohort", "setting": "RRMS patients [3]; [9]", "result": "(16%)"}, {"measurement": "Extreme Responders, number of samples", "setting": "RRMS patients [3]; [9]", "result": 95}, {"measurement": "Responders, % of cohort", "setting": "RRMS patients [3]; [10]", "result": "(36%)"}, {"measurement": "Responders, number of samples", "setting": "RRMS patients [3]; [10]", "result": 221}, {"measurement": "Non-Responders, % of cohort", "setting": "RRMS patients [3]; [11]", "result": "(11%)"}, {"measurement": "Non-Responders, number of samples", "setting": "RRMS patients [3]; [11]", "result": 68}, {"measurement": "Extreme Non-Responders, % of cohort", "setting": "RRMS patients [3]; [12]", "result": "(6%)"}, {"measurement": "Extreme Non-Responders, number of samples", "setting": "RRMS patients [3]; [12]", "result": 38}, {"measurement": "annualized relapse rate (ARR)", "setting": "RRMS patients [3]; [13]", "result": "0.368±0.039"}, {"measurement": "annualized relapse rate (ARR)", "setting": "RRMS patients [3]; [14]", "result": "0.290±0.03"}, {"measurement": "annualized relapse rate (ARR)", "setting": "RRMS patients [3]; [15]", "result": "0.368±0.039"}, {"measurement": "ARR reduced (improved) by", "setting": "RRMS patients [3]; 10 SNPs and 2 clinical variables", "result": 72, "unit": "%"}, {"measurement": "ARR reduced (improved) by", "setting": "RRMS patients [3]; 11 SNPs and 2 clinical variables", "result": 72, "unit": "%"}, {"measurement": "ARR reduced (improved) by", "setting": "RRMS patients [3]; 11 SNPs without clinical variables", "result": 50, "unit": "%"}, {"measurement": "annualized relapse rate (ARR)", "setting": "RRMS patients [3]; [16]", "result": "0.102±0.020"}, {"measurement": "annualized relapse rate (ARR)", "setting": "RRMS patients [3]; [17]", "result": "0.145±0.029"}, {"measurement": "annualized relapse rate (ARR)", "setting": "RRMS patients [3]; [18]", "result": "0.102±0.020"}, {"measurement": "Extreme Responders, % of cohort", "setting": "RRMS patients [4]; [9]", "result": "(8.5%)"}, {"measurement": "Extreme Responders, number of samples", "setting": "RRMS patients [4]; [9]", "result": 66}, {"measurement": "Responders, % of cohort", "setting": "RRMS patients [4]; [10]", "result": "(26%)"}, {"measurement": "Responders, number of samples", "setting": "RRMS patients [4]; [10]", "result": 200}, {"measurement": "Non-Responders, % of cohort", "setting": "RRMS patients [4]; [11]", "result": "(16%)"}, {"measurement": "Non-Responders, number of samples", "setting": "RRMS patients [4]; [11]", "result": 123}, {"measurement": "Extreme Non-Responders, % of cohort", "setting": "RRMS patients [4]; [12]", "result": "(10%)"}, {"measurement": "Extreme Non-Responders, number of samples", "setting": "RRMS patients [4]; [12]", "result": 79}, {"measurement": "annualized relapse rate (ARR)", "setting": "RRMS patients [4]; [13]", "result": "0.374±0.038"}, {"measurement": "annualized relapse rate (ARR)", "setting": "RRMS patients [4]; [14]", "result": "0.382±0.037"}, {"measurement": "annualized relapse rate (ARR)", "setting": "RRMS patients [4]; [15]", "result": "0.374±0.038"}, {"measurement": "ARR reduced (improved) by", "setting": "RRMS patients [4]; predicted responders vs placebo, 10 SNPs and 2 clinical variables", "result": 64, "unit": "%"}, {"measurement": "ARR reduced (improved) by", "setting": "RRMS patients [4]; predicted responders vs placebo, 11 SNPs and 2 clinical variables", "result": 64, "unit": "%"}, {"measurement": "ARR reduced (improved) by", "setting": "RRMS patients [4]; predicted responders vs placebo, 11 SNPs without clinical variables", "result": 71, "unit": "%"}, {"measurement": "ARR reduced (improved) by", "setting": "RRMS patients [4]; predicted responders vs predicted non-responders, 10 SNPs and 2 clinical variables", "result": 51, "unit": "%"}, {"measurement": "ARR reduced (improved) by", "setting": "RRMS patients [4]; predicted responders vs predicted non-responders, 11 SNPs and 2 clinical variables", "result": 51, "unit": "%"}, {"measurement": "ARR reduced (improved) by", "setting": "RRMS patients [4]; predicted responders vs predicted non-responders, 11 SNPs without clinical variables", "result": 62, "unit": "%"}, {"measurement": "annualized relapse rate (ARR)", "setting": "RRMS patients [4]; [16]", "result": "0.185±0.032"}, {"measurement": "annualized relapse rate (ARR)", "setting": "RRMS patients [4]; [17]", "result": "0.131±0.026"}, {"measurement": "annualized relapse rate (ARR)", "setting": "RRMS patients [4]; [18]", "result": "0.185±0.032"}, {"measurement": "relapse rate reduced by", "setting": "RRMS subjects; GA 20 mg vs placebo, largest controlled study", "result": 32, "unit": "%"}, {"measurement": "tolerability", "setting": "RRMS subjects; daily standard dose of 20 mg", "result": "generally well tolerated"}, {"measurement": "median cumulative number of Gd-enhancing lesions", "setting": "RRMS subjects; over 9 months of treatment, 20 mg group", "result": 11, "unit": "lesions"}, {"measurement": "relapse rate", "setting": "RRMS subjects; under GA 20 mg, largest controlled study", "result": 1.34}]}]}
